Reference: US7109193B2, “Tricyclic diazepines tocolytic oxytocin receptor antagonists” (Wyeth, priority 2001, dated 2006)
pIC50: −log10 of the molar value.

Target: T1, human vasopressin V2 receptor subtype (Homo sapiens, UniProt P30518)
T1 construct: host or cells: CHO cells (pZeoSV vector)
Assay: Vasopressin binding in Chinese Hamster Ovary cell membranes expressing human vasopressin V2 subtype receptors
Settings: CHO cell membranes, [3H]arginine vasopressin; for pIC50: values in parentheses; for inhibition at 0.1 µM: 100 nM, values without parentheses
Procedure, shortened: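 Radioligand displacement on membranes from CHO cells stably expressing human V2 receptor, 25 to 50 μg protein/well, in 50 mM Tris-HCl pH 7.4 with MgCl2, BSA and protease inhibitors. [^3H]arginine vasopressin (8 nM working solution) incubated 60 min at room temperature; bound label measured by filtration and scintillation counting.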

T1 sequence (P30518 whole entry): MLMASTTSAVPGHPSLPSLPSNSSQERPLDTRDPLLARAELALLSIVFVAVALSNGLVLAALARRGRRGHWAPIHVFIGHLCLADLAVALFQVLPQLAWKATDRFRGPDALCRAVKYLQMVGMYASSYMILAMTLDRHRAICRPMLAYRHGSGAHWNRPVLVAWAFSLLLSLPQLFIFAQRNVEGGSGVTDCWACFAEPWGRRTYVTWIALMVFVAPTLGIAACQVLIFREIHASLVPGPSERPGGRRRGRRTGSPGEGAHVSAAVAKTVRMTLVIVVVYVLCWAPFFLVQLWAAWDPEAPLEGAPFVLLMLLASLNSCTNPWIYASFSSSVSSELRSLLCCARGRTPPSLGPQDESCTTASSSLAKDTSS

SMILES | pIC50 | inhibition at 0.1 µM
C=CCN1CCN(C(=O)c2ccc3n2Cc2ccccc2N(C(=O)c2cc(Cl)c(-c4ccccc4C)cc2OC)C3)CC1 [Example 219, (4-Allyl-1-piperazinyl){10-[(6-chloro-3-methoxy-2′-methyl[1,1′-biphenyl]-4-yl)carbonyl]-10,11-dihydro-5H-pyrrolo[2,1-c][1,4]benzodiazepin-3-yl}methanone] | 5.88 | 
COc1ccccc1-c1ccc(C(=O)N2Cc3ccc(C(=O)N4CCN(CCN(C)C)CC4)n3Cc3ccccc32)cc1C [Example 195, {4-[2-(Dimethylamino)ethyl]-1-piperazinyl}{10-[(2′-methoxy-2-methyl[1,1′-biphenyl]-4-yl)carbonyl]-10,11-dihydro-5H-pyrrolo[2,1-c][1,4]benzodiazepin-3-yl}methanone] | 6.53 | 
O=C(c1ccc(-c2cccc3ccccc23)cc1Cl)N1Cc2cccn2Cc2ccccc21 [Example 24, [2-Chloro-4-(naphthalen-1-yl)phenyl][10,11-dihydro-5H-pyrrolo[2,1-c][1,4]benzodiazepin-10-yl]methanone] | 8.33 | 
COc1cc(C(=O)N2Cc3ccc(C(=O)N4CCC[C@H]4CN4CCCC4)n3Cc3ccccc32)ccc1-c1ccccc1C(F)(F)F [Example 20, {[10-(2-Methoxy)-2′-trifluoromethyl-[1,1′-biphenyl]-4-yl]carbonyl}-[(2S)-[(2-pyrrolidin-1-yl)methyl]pyrrolidin-1-yl]-10,11-dihydro-5H-pyrrolo[2,1-c][1,4]benzodiazepin-3-yl-methanone] | 5.36 | 
COc1ccccc1-c1ccc(C(=O)N2Cc3ccc(C(=O)N(C)CCCN(C)C)n3Cc3ccccc32)cc1 [Example 103, N-[3-(Dimethylamino)propyl]-10-[(2′-methoxy[1,1′-biphenyl]-4-yl)carbonyl]-N-methyl-10,11-dihydro-5H-pyrrolo[2,1-c][1,4]benzodiazepine-3-carboxamide] |  | 11%
Cc1ccccc1-c1ccc(C(=O)N2Cc3ccc(C(=O)N(C)CCCN(C)C)n3Cc3ccccc32)cc1 [Example 104, N-[3-(Dimethylamino)propyl]-N-methyl-10-[(2′-methyl[1,1′-biphenyl]-4-yl)carbonyl]-10,11-dihydro-5H-pyrrolo[2,1-c][1,4]benzodiazepine-3-carboxamide] |  | 20%
CN(C)CCN(C)C(=O)c1ccc2n1Cc1ccccc1N(C(=O)c1ccc(-c3cccc4ccccc34)cc1Cl)C2 [Example 96, 10-[2-Chloro-4-(1-naphthyl)benzoyl]-N-[2-(dimethylamino)ethyl]-N-methyl-10,11-dihydro-5H-pyrrolo[2,1-c][1,4]benzodiazepine-3-carboxamide] |  | 24%
COc1cc(-c2ccccc2C)c(Cl)cc1C(=O)N1Cc2ccc(C(=O)N3CCN(C)CC3)n2Cc2ccccc21 [Example 47, {10-[(6-Chloro-3-methoxy-2′-methyl[1,1′-biphenyl]-4-yl)carbonyl]-10,11-dihydro-5H-pyrrolo[2,1-c][1,4]benzodiazepin-3-yl}(4-methyl-1-piperazinyl)methanone] | 6.14 | 
Cc1cc(C(=O)N2Cc3ccc(C(=O)N4CCC[C@H]4CN4CCCC4)n3Cc3ccccc32)ccc1-c1ccccc1C(F)(F)F [Example 258, (10-{[2-Methyl-2′-(trifluoromethyl)[1,1′-biphenyl]-4-yl]carbonyl}-10,11-dihydro-5H-pyrrolo[2,1-c][1,4]benzodiazepin-3-yl)[(2S)-2-(1-pyrrolidinylmethyl)pyrrolidinyl]methanone] | 5.25 | 
COc1ccccc1-c1ccc(C(=O)N2Cc3ccc(C(=O)N4CCN(CCCN(C)C)CC4)n3Cc3ccccc32)cc1 [Example 246, {4-[3-(Dimethylamino)propyl]-1-piperazinyl}{10-[(2′-methoxy[1,1′-biphenyl]-4-yl)carbonyl]-10,11-dihydro-5H-pyrrolo[2,1-c][1,4]benzodiazepin-3-yl}methanone] | 6.29 | 
COc1cc(-c2ccccc2C)c(Cl)cc1C(=O)N1Cc2ccc(C(=O)N3CC[C@@H](N(C)C)C3)n2Cc2ccccc21 [Example 273, {10-[(6-Chloro-3-methoxy-2′-methyl[1,1′-biphenyl]-4-yl)carbonyl]-10,11-dihydro-5H-pyrrolo[2,1-c][1,4]benzodiazepin-3-yl}[(3R)-3-(dimethylamino)pyrrolidinyl]methanone] | 6.09 | 
COc1ccccc1-c1ccc(C(=O)N2Cc3ccc(C(=O)N(C)CCN(C)C)n3Cc3ccccc32)cc1 [Example 90, N-[2-(Dimethylamino)ethyl]-10-[(2′-methoxy[1,1′-biphenyl]-4-yl)carbonyl]-N-methyl-10,11-dihydro-5H-pyrrolo[2,1-c][1,4]benzodiazepine-3-carboxamide] |  | 19%
COc1ccccc1-c1ccc(C(=O)N2Cc3ccc(C(=O)N4CCN(CCN5CCOCC5)CC4)n3Cc3ccccc32)cc1C [Example 206, {10-[(2′-Methoxy-2-methyl[1,1′-biphenyl]-4-yl)carbonyl]-10,11-dihydro-5H-pyrrolo[2,1-c][1,4]benzodiazepin-3-yl}{4-[2-(4-morpholinyl)ethyl]-1-piperazinyl}methanone] | 6.72 | 
Cc1cc(C(=O)N2Cc3ccc(C(=O)N4CCN(CCCN(C)C)CC4)n3Cc3ccccc32)ccc1-c1ccccc1C(F)(F)F [Example 4, [4-(3-Dimethylaminopropyl)-piperazin-1-yl]-[10-(2-methyl-2′-trifluoromethyl-[1,1′-biphenyl]-4-yl)carbonyl]-[10,11-dihydro-5H-pyrrolo[2,1-c][1,4]benzodiazepin-3-yl]-methanone] |  | 24%
COc1cc(-c2ccccc2C)c(Cl)cc1C(=O)N1Cc2ccc(C(=O)N3CCN(CCN(C)C)CC3)n2Cc2ccccc21 [Example 197, {10-[(6-Chloro-3-methoxy-2′-methyl[1,1′-biphenyl]-4-yl)carbonyl]-10,11-dihydro-5H-pyrrolo[2,1-c][1,4]benzodiazepin-3-yl}{4-[2-(dimethylamino)ethyl]-1-piperazinyl}methanone] | 6.30 | 
Cc1cc(C(=O)N2Cc3ccc(C(=O)N(C)CCCN(C)C)n3Cc3ccccc32)ccc1-c1ccccc1C(F)(F)F [Example 97, N-[3-(Dimethylamino)propyl]-N-methyl-10-{[2-methyl-2′-(trifluoromethyl)[1,1′-biphenyl]-4-yl]carbonyl}-10,11-dihydro-5H-pyrrolo[2,1-c][1,4]benzodiazepine-3-carboxamide] | 5.70 | 
COc1cc(C(=O)N2Cc3ccc(C(=O)N(C)CCCN(C)C)n3Cc3ccccc32)ccc1-c1ccccc1C(F)(F)F [Example 21, N-Methyl-[N-(3-dimethylamino)propyl]-10-{[2-methoxy-2′-trifluoromethyl-[1,1′-biphenyl]-4-yl]carbonyl}-10,11-dihydro-5H-pyrrolo[2,1-c][1,4]benzodiazepin-3-carboxamide] | 5.93 | 

More lines, now with the values ahead:

pIC50 | inhibition at 0.1 µM | SMILES
 | 43% | COc1cc(C(=O)N2Cc3ccc(C(=O)NCCCN(C)C)n3Cc3ccccc32)ccc1-c1cccc2ccccc12 [Example 80, N-[3-(Dimethylamino)propyl]-10-[3-methoxy-4-(1-naphthyl)benzoyl]-10,11-dihydro-5H-pyrrolo[2,1-c][1,4]benzodiazepine-3-carboxamide]
 | 10% | COc1cccc(-c2ccc(C(=O)N3Cc4ccc(C(=O)NCCCN(C)C)n4Cc4ccccc43)cc2OC)c1 [Example 82, 10-[(2,3′-Dimethoxy[1,1′-biphenyl]-4-yl)carbonyl]-N-[3-(dimethylamino)propyl]-10,11-dihydro-5H-pyrrolo[2,1-c][1,4]benzodiazepine-3-carboxamide]
5.87 |  | COc1cc(-c2ccccc2C)ccc1C(=O)N1Cc2ccc(C(=O)N(C)CCCN(C)C)n2Cc2ccccc21 [Example 11, N-Methyl-N-[3-(dimethylamino)propyl]-10-[(3-methoxy-2′-methyl[1,1′-biphenyl]-4-yl)carbonyl]-10,11-dihydro-5H-pyrrolo[2,1-c][1,4]benzodiazepine-3-carboxamide]
 | 7% | COc1cccc(-c2cc(OC)c(C(=O)N3Cc4ccc(C(=O)NCCCN(C)C)n4Cc4ccccc43)cc2Cl)c1 [Example 79, 10-[(6-Chloro-3,3′-dimethoxy[1,1′-biphenyl]-4-yl)carbonyl]-N-[3-(dimethylamino)propyl]-10,11-dihydro-5H-pyrrolo[2,1-c][1,4]benzodiazepine-3-carboxamide]
5.99 |  | COc1cc(-c2ccccc2C)c(Cl)cc1C(=O)N1Cc2ccc(C(=O)N(C)CCCN(C)C)n2Cc2ccccc21 [Example 98, 10-[(6-Chloro-3-methoxy-2′-methyl[1,1′-biphenyl]-4-yl)carbonyl]-N-[3-(dimethylamino)propyl]-N-methyl-10,11-dihydro-5H-pyrrolo[2,1-c][1,4]benzodiazepine-3-carboxamide]
 | 13% | COc1cccc(-c2ccc(C(=O)N3Cc4ccc(C(=O)N(C)CCN(C)C)n4Cc4ccccc43)cc2C)c1 [Example 89, N-[2-(Dimethylamino)ethyl]-10-[(3′-methoxy-2-methyl[1,1′-biphenyl]-4-yl)carbonyl]-N-methyl-10,11-dihydro-5H-pyrrolo[2,1-c][1,4]benzodiazepine-3-carboxamide]
 | 13% | COc1cccc(-c2ccc(C(=O)N3Cc4ccc(C(=O)N(C)CCN(C)C)n4Cc4ccccc43)cc2OC)c1 [Example 95, 10-[(2,3′-Dimethoxy[1,1′-biphenyl]-4-yl)carbonyl]-N-[2-(dimethylamino)ethyl]-N-methyl-10,11-dihydro-5H-pyrrolo[2,1-c][1,4]benzodiazepine-3-carboxamide]
 | 18% | CN(C)CCCNC(=O)c1ccc2n1Cc1ccccc1N(C(=O)c1ccc(-c3cccc4ccccc34)cc1Cl)C2 [Example 83, 10-[2-Chloro-4-(1-naphthyl)benzoyl]-N-[3-(dimethylamino)propyl]-10,11-dihydro-5H-pyrrolo[2,1-c][1,4]benzodiazepine-3-carboxamide]
